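Briefly, cells in 96-well plates were exposed to five compound concentrations for 48 h, and endpoints were estimated by linear interpolation. TGI: total growth inhibition.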
Legend:
Assay in all cases: inhibition of tumour cell growth, NCI panel, 48 h
[1] = tested on: SNB-75 CNS
[2] = tested on: SN12C renal
[3] = tested on: SF-295 CNS
[4] = tested on: TK-10 renal
[5] = tested on: CCRF-CEM leukemia
[6] = tested on: HCT-15 colon
[7] = tested on: NCI/ADR-RES ovarian
[8] = tested on: MDA-MB-435
[9] = tested on: MCF7 breast
[10] = tested on: SNB-19 CNS
[11] = tested on: HL-60(TB) leukemia
[12] = tested on: HCC-2998 colon
[13] = tested on: MDA-MB-231 breast
[14] = tested on: MOLT-4 leukemia
[15] = tested on: MDA-N
[16] = tested on: A498 renal
[17] = tested on: HOP-62 NSCLC
[18] = tested on: HS 578T breast
[19] = tested on: NCI-H226 lung
[20] = tested on: RPMI-8226 leukemia
[21] = tested on: SR leukemia
[22] = tested on: SK-MEL-28 melanoma
[23] = tested on: OVCAR-4 ovarian
[24] = tested on: M14 melanoma
[25] = tested on: ACHN renal
[26] = tested on: BT-549 breast
[27] = tested on: HCT-116 colon
[28] = tested on: RXF 393 renal
[29] = tested on: SW-620 colon
[30] = tested on: NCI-H23 lung
[31] = tested on: A549 NSCLC
[32] = tested on: 786-0 renal
[33] = tested on: OVCAR-5 ovarian
[34] = tested on: NCI-H522 lung
[35] = tested on: PC-3 prostate
[36] = tested on: SK-MEL-5 melanoma
[37] = tested on: DU-145 prostate
[38] = tested on: SF-268 CNS
[39] = tested on: MALME-3M melanoma
[40] = tested on: UO-31 renal
[41] = tested on: OVCAR-8 ovarian
[42] = tested on: COLO 205 colon
[43] = tested on: NCI-H460 lung
[44] = tested on: OVCAR-3 ovarian
[45] = tested on: SK-MEL-2 melanoma
[46] = tested on: SF-539 CNS
[47] = tested on: U251 CNS
[48] = tested on: UACC-62 melanoma
[49] = tested on: SK-OV-3 ovarian
[50] = tested on: CAKI-1 renal
[51] = tested on: T-47D breast
[52] = tested on: UACC-257 melanoma
[53] = tested on: K-562 leukemia
[54] = tested on: HOP-92 NSCLC
[55] = tested on: HT29 colon
[56] = tested on: KM12 colon
[57] = tested on: EKVX NSCLC
[58] = tested on: LOX IMVI melanoma
[59] = tested on: IGROV1 ovarian

## O=C1N[C@@H]2c3c(Br)sc(Br)c3C(=O)[C@@H]2N1
[1]
  TGI: 18.4 µM
[2]
  TGI: 14.5 µM
[3]
  TGI: 29.5 µM
[4]
  TGI: 6.09 µM
[5]
  TGI: 3.29 µM
[6]
  TGI: 11.1 µM
[7]
  TGI: > 70.6 µM
[8]
  TGI: 4.83 µM
[9]
  TGI: 10.1 µM
[10]
  TGI: 26.2 µM
[11]
  TGI: 5.36 µM
[12]
  TGI: 3.42 µM
[13]
  TGI: 10.9 µM
[14]
  TGI: 9.08 µM
[15]
  TGI: 5.04 µM
[16]
  TGI: 34 µM
[17]
  TGI: 20.6 µM
[18]
  TGI: 37 µM
[19]
  TGI: 91.2 µM
[20]
  TGI: 18.5 µM
[21]
  TGI: 4.72 µM
[22]
  TGI: 12.3 µM
[23]
  TGI: 16.8 µM
[24]
  TGI: 16.5 µM
[25]
  TGI: 14.1 µM
[26]
  TGI: 53 µM
[27]
  TGI: 3.88 µM
[28]
  TGI: 14.3 µM
[29]
  TGI: 4.33 µM
[30]
  TGI: 17 µM
[31]
  TGI: 30 µM
[32]
  TGI: 6.4 µM
[33]
  TGI: 35.1 µM
[34]
  TGI: 11.2 µM
[35]
  TGI: 10.4 µM
[36]
  TGI: 23.9 µM
[37]
  TGI: 17.2 µM
[38]
  TGI: 13.8 µM
[39]
  TGI: 18.3 µM
[40]
  TGI: 9.93 µM
[41]
  TGI: 10.5 µM
[42]
  TGI: 12.1 µM
[43]
  TGI: 18.3 µM
[44]
  TGI: 6.72 µM
[45]
  TGI: 13.7 µM
[46]
  TGI: 8.88 µM
[47]
  TGI: 7.03 µM
[48]
  TGI: 15.4 µM
[49]
  TGI: 27.1 µM
[50]
  TGI: 8.56 µM
[51]
  TGI: 21.5 µM
[52]
  TGI: 8.19 µM
[53]
  TGI: > 100 µM
[54]
  TGI: 12.5 µM
[55]
  TGI: 9.01 µM
[56]
  TGI: 19.4 µM
[57]
  TGI: 17.1 µM
[58]
  TGI: 4.28 µM
[59]
  TGI: 7.16 µM

Reference: PubChem BioAssay (NCI)
